{
  "source": "patent US5376645A",
  "about": "(University of Kansas, priority 1992, dated 1994)",
  "key": {"[1]": {"experiment": "Plasma urea nitrogen (kidney function)", "type": "in vivo", "settings": "mice; 24 hrs; n = 4; normal saline control 15.88 ± 1.21", "text": "Plasma urea nitrogen levels are an indicator of kidney function with higher levels indicating renal damage. […] There is however no statistical difference between our derivatives and the hydroxypropyl derivative.\n^(1) SIGMA Urea Nitrogen Procedure No. 640A"}, "[2]": {"test_system": "red blood cell", "experiment": "Hemolysis of red blood cells (membrane disruption)", "type": "cell-based", "text": "The mono substituted derivatives caused about the same amount of membrane disruption as the hydroxypropyl derivative."}, "[3]": {"experiment": "Phase solubility: association constant with digoxin", "type": "physicochemical", "settings": "1:1 complex"}, "[4]": {"experiment": "Phase solubility: association constant with testosterone", "type": "physicochemical", "settings": "1:1 complex"}, "[5]": {"experiment": "Phase solubility: association constant with phenytoin", "type": "physicochemical", "settings": "1:1 complex", "text": "Similar results can be seen for progesterone (see Table 3 and FIGS. 5 and 6), phenytoin (see Table 4 and FIGS. 7 and 8), and testosterone (see Table 5 and FIGS. 9 and 10)."}},
  "data": [
    {"smiles": "OC[C@H]1O[C@@H]2O[C@H]3[C@H](O)[C@@H](O)[C@@H](O[C@H]4[C@H](O)[C@@H](O)[C@@H](O[C@H]5[C@H](O)[C@@H](O)[C@@H](O[C@H]6[C@H](O)[C@@H](O)[C@@H](O[C@H]7[C@H](O)[C@@H](O)[C@@H](O[C@H]8[C@H](O)[C@@H](O)[C@@H](O[C@H]1[C@H](O)[C@H]2O)O[C@@H]8CO)O[C@@H]7CO)O[C@@H]6CO)O[C@@H]5CO)O[C@@H]4CO)O[C@@H]3CO", "note": "[β-Cyclodextrin, β-cyclodextrin]", "values": [
      {"measurement": "Plasma Urea Nitrogen, PUN + S.D.", "setting": "[1]", "result": "160.10 ± 26.16", "unit": "mg/dL"},
      {"measurement": "membrane disruption / percent hemolysis (in words)", "setting": "[2]", "result": "causing the most membrane disruption"},
      {"measurement": "Digoxin association constant K1:1", "setting": "[3]", "result": 28200, "unit": "M⁻¹"},
      {"measurement": "Testosterone association constant K1:1", "setting": "[4]", "result": 17800, "unit": "M⁻¹"},
      {"measurement": "Phenytoin association constant K1:1", "setting": "[5]", "result": 1510, "unit": "M⁻¹"}
    ]}
  ]
}
